The values that follow come from patent publication US20260374754A1, “N-((ISOQUINOLIN-6-YL)METHYL)-1H-PYRAZOLE-4-CARBOXAMIDE DERIVATIVES AS PLASMA KALLIKREIN INHIBITORS FOR THE TREATMENT OF HEREDITARY ANGIODEMA” (Takeda Pharmaceutical Company Limited, priority 2022, published 2026).

Where a name gives a salt, the structure may show the parent alone.

Chain of human activated kallikrein enzyme (P03952 391-638 limits assumed): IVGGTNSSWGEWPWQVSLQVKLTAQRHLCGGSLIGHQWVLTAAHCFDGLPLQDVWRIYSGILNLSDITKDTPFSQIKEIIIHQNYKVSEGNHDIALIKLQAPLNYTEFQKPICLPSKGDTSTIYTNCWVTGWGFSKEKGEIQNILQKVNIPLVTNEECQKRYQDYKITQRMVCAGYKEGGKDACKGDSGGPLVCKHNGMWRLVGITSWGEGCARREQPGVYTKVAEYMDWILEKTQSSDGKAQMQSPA
Chain of human activated kallikrein enzyme (P03952 20-390 partner limits assumed): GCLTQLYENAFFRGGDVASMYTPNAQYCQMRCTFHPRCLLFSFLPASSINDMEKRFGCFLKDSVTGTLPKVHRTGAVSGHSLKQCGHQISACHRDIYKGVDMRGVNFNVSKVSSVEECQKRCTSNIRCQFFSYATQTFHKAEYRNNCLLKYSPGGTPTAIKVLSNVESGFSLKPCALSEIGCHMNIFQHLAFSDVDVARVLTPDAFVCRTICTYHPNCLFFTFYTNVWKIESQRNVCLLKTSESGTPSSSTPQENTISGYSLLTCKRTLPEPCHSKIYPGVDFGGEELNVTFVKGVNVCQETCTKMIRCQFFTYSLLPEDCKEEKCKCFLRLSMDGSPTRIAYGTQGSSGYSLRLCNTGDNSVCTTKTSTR

This assay deals with human activated kallikrein enzyme (Homo sapiens, UniProt P03952). Nature of the assay: Inhibition of human activated plasma kallikrein, fluorogenic PFR-AMC substrate, 500 pM enzyme format. The following applies: 500 pM activated kallikrein; 300 μM PFR-AMC; 30 min preincubation; 10 min room temperature; pH 7.5; read-out: Primary Dose Response Assay: Average EC50. Type of assay: biochemical. The protocol:
Compounds were evaluated for inhibition of the human activated kallikrein enzyme in two formats of an assay employing a fluorogenic peptide substrate. In one assay format, the concentrations of reagents were as follows: 20 mM Tris pH 7.5, 1 mM EDTA, 150 mM sodium chloride, 0.1% PEG-400, 0.1% Triton X-100, 500 pM activated kallikrein enzyme, 300 μM Pro-Phe-Arg-7-amido-4-methylcoumarin (PFR-AMC) substrate. Prior to reaction initiation with substrate, enzyme and inhibitors were preincubated for 30 min at room temperature. After initiation with substrate, reactions were incubated for 10 min at room temperature and fluorescence emission at 460 nm from 380 nm excitation measured with a microplate reader. In another assay format, the concentrations of reagents were as follows: 20 mM Tris pH 7.5, 1 mM EDTA, 150 mM sodium chloride, 0.1% PEG-400, 0.1% Triton X-100, 5 pM activated kallikrein enzyme, 300 uM PFR-AMC substrate. Prior to reaction initiation with substrate, enzyme and inhibitors were preincubated for 30 min at room temperature. After initiation with substrate, reactions were incubated for 18 hr at room temperature and fluorescence emission at 460 nm from 380 nm excitation measured with a microplate reader.
Table 35 provides the results of the assay in the format with 500 pM activated kallikrein assay.
What is called EC50 is the concentration giving half of the maximal effect. In the case of `Cc1cc2c(N)nccc2c(C)c1CNc1cc(OCc2cn3c(C)c(Cl)ccc3n2)ncn1` [Example 304, 6-(((6-((6-chloro-5-methylimidazo[1,2-a]pyridin-2-yl)methoxy)pyrimidin-4-yl)amino)methyl)-5,7-dimethylisoquinolin-1-amine], the 50% effective concentration (EC50) is under 0.001 µM.
As to `Cc1cc2c(N)nccc2c(C)c1CNc1cc(OCc2cnn(-c3ccccc3)c2)cnn1` [Example 442, 5,7-dimethyl-6-(((5-((1-phenyl-1H-pyrazol-4-yl)methoxy)pyridazin-3-yl)amino)methyl)isoquinolin-1-amine], the EC50 lay within 0.001 to 0.01 µM.
The result for `Cc1cc2c(N)nccc2c(C)c1CNC(=O)c1cnn(Cc2ccncc2)c1` [Example 87, N-((1-amino-5,7-dimethylisoquinolin-6-yl)methyl)-1-(pyridin-4-ylmethyl)-1H-pyrazole-4-carboxamide] reads 0.1 to 1 µM; that for `COc1ccc2cc(Cn3cc(C(=O)NCc4c(C)cc5c(N)nccc5c4C)cn3)c(Cl)nc2c1` [Example 108, N-((1-amino-5,7-dimethylisoquinolin-6-yl)methyl)-1-((2-chloro-7-methoxyquinolin-3-yl)methyl)-1H-pyrazole-4-carboxamide], under 0.001 µM.
In the case of `Cc1ccc(Cn2cc(C(=O)NCc3c(C)cc4c(N)nccc4c3C)cn2)cc1Cl` [Example 96, N-((1-amino-5,7-dimethylisoquinolin-6-yl)methyl)-1-(3-chloro-4-methylbenzyl)-1H-pyrazole-4-carboxamide] it was 0.001 to 0.01 µM; in that of `COCc1c(C(=O)NCc2c(C)cc3c(N)nccc3c2C)cnn1Cc1ccc(Cn2cccn2)cc1` [Example 188, 1-(4-((1H-pyrazol-1-yl)methyl)benzyl)-N-((1-amino-5,7-dimethylisoquinolin-6-yl)methyl)-5-(methoxymethyl)-1H-pyrazole-4-carboxamide], 0.01 to 0.1 µM; in that of `Cc1cc2c(N)nccc2c(C)c1CNc1cc(OCc2ccc(CN3CCOCC3=O)cc2)ncn1` [Example 302, 4-(4-(((6-(((1-amino-5,7-dimethylisoquinolin-6-yl)methyl)amino)pyrimidin-4-yl)oxy)methyl)benzyl)morpholin-3-one, trifluoroacetic acid salt], 0.001 to 0.01 µM.
The result for `CCOC(=O)Nc1nccc2c(C)c(CNC(=O)c3cnn(Cc4cn5cc(C)ccc5n4)c3)c(C)cc12` [Example 9, ethyl (5,7-dimethyl-6-((1-((6-methylimidazo[1,2-a]pyridin-2-yl)methyl)-1H-pyrazole-4-carboxamido)methyl)isoquinolin-1-yl)carbamate] reads 0.001 to 0.01 µM.
Consider `Cc1cc2c(N)nccc2c(C)c1CNc1cc(NCc2cc(C)c(OCC(=O)N(C)C)c(C)c2)ncn1` [Example 348, 2-(4-(((6-(((1-amino-5,7-dimethylisoquinolin-6-yl)methyl)amino)pyrimidin-4-yl)amino)methyl)-2,6-dimethylphenoxy)-N,N-dimethylacetamide], for which the EC50 fell in the range of 0.001 to 0.01 µM.
`CNc1nccc2c(C)c(CNC(=O)c3cnn(Cc4cn5cc(C6CC6)ccc5n4)c3)c(C)cc12` [Example 134, 1-((6-cyclopropylimidazo[1,2-a]pyridin-2-yl)methyl)-N-((5,7-dimethyl-1-(methylamino)isoquinolin-6-yl)methyl)-1H-pyrazole-4-carboxamide]: the EC50 is under 0.001 µM.
In the case of `Cc1cc2c(N)nccc2c(C)c1CNc1cncc(NCc2ccc(Cn3cccn3)cc2)n1` [Example I-476, N^2-(4-((1H-pyrazol-1-yl)methyl)benzyl)-N^6-((1-amino-5,7-dimethylisoquinolin-6-yl)methyl)pyrazine-2,6-diamine] it was 0.01 to 0.1 µM.
The result for `Cc1cnn(Cc2ccc(Cn3cc(C(=O)NCc4c(C)cc5c(N)nccc5c4C)c(C(F)(F)F)n3)cc2)c1` [Example 184, N-((1-amino-5,7-dimethylisoquinolin-6-yl)methyl)-1-(4-((4-methyl-1H-pyrazol-1-yl)methyl)benzyl)-3-(trifluoromethyl)-1H-pyrazole-4-carboxamide] reads under 0.001 µM.
The result for `Cc1cc2c(N)nccc2c(C)c1CNC(=O)c1cnn(C(C)c2ccc3ncc(Cl)cc3c2)c1` (stereo not shown) [Example 120, N-((1-amino-5,7-dimethylisoquinolin-6-yl)methyl)-1-(1-(3-chloroquinolin-6-yl)ethyl)-1H-pyrazole-4-carboxamide] reads under 0.001 µM.
For the compound `Cc1cc2c(N)nccc2c(C)c1CNC(=O)c1cnn([C@H](C)c2ccccc2)c1` [Example 127, (R)-N-((1-amino-5,7-dimethylisoquinolin-6-yl)methyl)-1-(1-phenylethyl)-1H-pyrazole-4-carboxamide], the EC50 was 0.1 to 1 µM.
The result for `Cc1cc2c(N)nccc2c(C)c1CNc1cc(NCc2ccc3ncc(F)cc3c2)ncn1` [Example 334, N^4-((1-amino-5,7-dimethylisoquinolin-6-yl)methyl)-N^6-((3-fluoroquinolin-6-yl)methyl)pyrimidine-4,6-diamine] reads under 0.001 µM; that for `Cc1cc2c(N)nccc2c(C)c1CNC(=O)c1cnn(Cc2ccc(C(F)(F)F)cc2)c1` [Example 93, N-((1-amino-5,7-dimethylisoquinolin-6-yl)methyl)-1-(4-(trifluoromethyl)benzyl)-1H-pyrazole-4-carboxamide], 0.01 to 0.1 µM.
The result for `Cc1ccc(Cn2cc(C(=O)NCc3c(C)cc4c(N)nccc4c3C)cn2)cc1C(F)(F)F` [Example 36, N-((1-amino-5,7-dimethylisoquinolin-6-yl)methyl)-1-(4-methyl-3-(trifluoromethyl)benzyl)-1H-pyrazole-4-carboxamide] reads 0.001 to 0.01 µM; that for `Cc1cc2c(N)nccc2c(C)c1CNc1cc(NCc2ccc3ncccc3c2)ncn1` [Example 337, N^4-((1-amino-5,7-dimethylisoquinolin-6-yl)methyl)-N^6-(quinolin-6-ylmethyl)pyrimidine-4,6-diamine], 0.001 to 0.01 µM.
On to `Cc1cc2c(N)nccc2c(C)c1CNC(=O)c1cnn(Cc2ccc(CC(=O)N3C[C@@H]4[C@H](CO)[C@@H]4C3)cc2)c1` [Example 209, N-((1-amino-5,7-dimethylisoquinolin-6-y1)methyl)-1-(4-(2-((1R,5S,6s)-6-(hydroxymethyl)-3-azabicyclo[3.1.0]hexan-3-y1)-2-oxoethyl)benzyl)-1H-pyrazole-4-carboxamide], for which the concentration for a half-maximal effect (EC50) was under 0.001 µM.
The result for `Cc1cc2c(N)nccc2c(C)c1CNC(=O)c1cnn(Cc2cc3cc(Br)ccc3o2)c1` [Example 50, N-((1-amino-5,7-dimethylisoquinolin-6-yl)methyl)-1-((5-bromobenzofuran-2-yl)methyl)-1H-pyrazole-4-carboxamide] reads 0.001 to 0.01 µM; that for `CC(C)=Cc1ccc2nc(Cn3cc(C(=O)NCc4c(C)cc5c(N)nccc5c4C)cn3)cn2c1` [Example 179, N-((1-amino-5,7-dimethylisoquinolin-6-yl)methyl)-1-((6-(2-methylprop-1-en-1-yl)imidazo[1,2-a]pyridin-2-y1)methyl)-1H-pyrazole-4-carboxamide], 0.001 to 0.01 µM.
Take `Cc1cc(Cn2cc(C(=O)NCc3c(C)cc4c(N)nccc4c3C)cn2)ccc1CC(=O)N(C)C` [Example 26, N-((1-amino-5,7-dimethylisoquinolin-6-yl)methyl)-1-(4-(2-(dimethylamino)-2-oxoethyl)-3-methylbenzyl)-1H-pyrazole-4-carboxamide]: the concentration for a half-maximal effect (EC50) is under 0.001 µM.
As for `Cc1cc2c(N)nccc2c(C)c1CNC(=O)c1cnn(Cc2cnc3c(C)cccc3c2)c1` [Example 72, N-((1-amino-5,7-dimethylisoquinolin-6-yl)methyl)-1-((8-methylquinolin-3-yl)methyl)-1H-pyrazole-4-carboxamide], the EC50 is under 0.001 µM.
For `Cc1c(CNC(=O)c2cnn(Cc3ccccc3)c2)c(C2(C)CC2)cc2c(N)nccc12` [Example 175, N-((1-amino-5-methy1-7-(1-methylcyclopropyl)isoquinolin-6-y1)methyl)-1-benzyl-1H-pyrazole-4-carboxamide], the EC50 lay within 0.01 to 0.1 µM.
As for `Cc1cc2c(N)nccc2c(C)c1CNc1cc(OCc2ccc(Cn3ccc(C4CC4)n3)cc2)cnn1` [Example 431, 6-(((5-((4-((3-cyclopropyl-1H-pyrazol-1-yl)methyl)benzyl)oxy)pyridazin-3-yl)amino)methyl)-5,7-dimethylisoquinolin-1-amine], the EC50 was under 0.001 µM.
As for `Cc1cc2c(N)nccc2c(C)c1CNc1cc(OCc2cnc(N3CCCC3)nc2)ncn1` [Example 298, 5,7-dimethyl-6-(((6-((2-(pyrrolidin-1-yl)pyrimidin-5-yl)methoxy)pyrimidin-4-yl)amino)methyl)isoquinolin-1-amine], the EC50 lay in the range of 0.01 to 0.1 µM.
The result for `Cc1cc2c(N)nccc2c(C)c1CNC(=O)c1cnn(Cc2cc(Cl)cc(Cl)c2)c1` [Example 37, N-((1-amino-5,7-dimethylisoquinolin-6-yl)methyl)-1-(3,5-dichlorobenzyl)-1H-pyrazole-4-carboxamide] reads 0.01 to 0.1 µM; that for `Cc1ccc2cnc(Cn3cc(C(=O)NCc4c(C)cc5c(N)nccc5c4C)cn3)cc2c1` [Example 1, N-((1-amino-5,7-dimethylisoquinolin-6-yl)methyl)-1-((6-methylisoquinolin-3-yl)methyl)-1H-pyrazole-4-carboxamide], under 0.001 µM.
